In patent publication US12077555B2, “STAT degraders and uses thereof” (Kymera Therapeutics, Inc., priority 2019, dated 2024):

The molecules below were run against STAT3 (Homo sapiens, UniProt P40763) (assay: Quantitation of STAT3 degradation in A549 cells by Western blot). Conditions: 24 hours, tested up to 30 μM or 10 μM, read-out: A549 DC50.
Format: cell-based
Design: expressed in transfected cells; host or cells: A549
Method: Degradation of total cellular STAT3 protein in A549 was quantitatively measured using SDS-PAGE and Western blot analysis. A549 cells (5×10^5 cells/well, 2 mL) were seeded into 6-well plates and were incubated in the incubator under 5% CO2 overnight to reach ˜80% confluency. The next day, the culture medium was changed with 1 ml fresh media. Then, 1 mL of media containing 2× compound solution was added into the well to make the final concentration of 30 μM, 10 μM, 3 μM, 1 μM, 0.3 μM and 0 μM (DMSO). The media was thoroughly mixed and incubated for 24 hours at 37° C. under 5% CO2. Then, the culture media was removed from the assay plates and the cells were washed with ice-cold PBS twice. To prepare cell lysates, 200 ul pre-chilled RIPA lysis buffer (Boston BioProducts BP-115D) with protease/phosphatase inhibitor (Roche 05892791001/Roche 04906837001) was added directly into the well to lyse the cells for 20 minutes on ice. The cell lysates were then transferred to centrifuge tubes. Insoluble part of lysates was removed by centrifuging the lysates at 13000 rpm for 20 minutes. The supernatant was then collected and mixed with 5× loading buffer (Beyotime Bio P0015) to make the final samples for SDS-PAGE analysis. The samples were heated at 100° C. for 10 minutes and cool to room temperature before centrifuging at 13000 rpm for 20 minutes. To analyze the samples by SDS-PAGE, 10 ul samples were loaded onto SDS-PAGE gel (Novex, WG1403BOX) and the SDS-PAGE gel was run for 20 minutes at 80 V, then at 120 V for 1.5 hours. The SDS-PAGE gel was then transferred to nitrocellulose membrane using the wet-transfer method at 250 mA for 1.5 hours. The membrane was then blocked with LI-COR blocking buffer (LI-COR, 927-50000) for 1 hour and was probed with primary antibody (mouse anti-STAT3 (124H6) (CST #91395) 1:2000 or mouse anti-beta-Actin (8H10D10) (CST #3700) 1:10000) at 4° C. overnight. The membrane was then washed three times with TBST buffer and probed with secondary antibody (anti-mouse IgG (LI-COR, 926-68070), 1:5000) for 1 hour at room temperature. The membrane was then scanned on a LI-COR Odyssey instrument and was quantified using Image Studio Version 5.2. Concentration at 50% degradation (DC50) was calculated by fitting dose dependent degradation data using a sigmoidal equation using GraphPad Prism Version 8.0.

Sequence of STAT3 (P40763 whole entry): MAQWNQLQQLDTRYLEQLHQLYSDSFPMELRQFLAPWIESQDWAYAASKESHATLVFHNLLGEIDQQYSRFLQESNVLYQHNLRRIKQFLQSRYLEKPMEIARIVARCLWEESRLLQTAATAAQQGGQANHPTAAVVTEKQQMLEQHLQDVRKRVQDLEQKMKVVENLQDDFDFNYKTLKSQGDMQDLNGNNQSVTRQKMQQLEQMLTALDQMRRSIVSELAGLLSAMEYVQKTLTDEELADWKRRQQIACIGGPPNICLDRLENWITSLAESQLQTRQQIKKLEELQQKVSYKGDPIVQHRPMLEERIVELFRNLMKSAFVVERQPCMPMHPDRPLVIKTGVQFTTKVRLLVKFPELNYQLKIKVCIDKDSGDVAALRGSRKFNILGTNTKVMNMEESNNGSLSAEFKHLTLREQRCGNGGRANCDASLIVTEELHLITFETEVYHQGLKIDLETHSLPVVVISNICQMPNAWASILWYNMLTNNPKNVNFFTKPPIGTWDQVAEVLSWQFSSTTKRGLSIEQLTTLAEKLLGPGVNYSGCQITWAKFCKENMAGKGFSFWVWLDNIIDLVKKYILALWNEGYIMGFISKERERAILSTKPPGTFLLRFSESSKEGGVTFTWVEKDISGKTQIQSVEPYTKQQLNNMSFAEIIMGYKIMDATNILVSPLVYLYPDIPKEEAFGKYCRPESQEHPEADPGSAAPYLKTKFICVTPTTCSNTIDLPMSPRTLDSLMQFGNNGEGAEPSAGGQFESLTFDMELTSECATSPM

Q: With `C/C(=C\C(=O)N[C@H]1CCc2cccc3c2N(C1=O)[C@H](C(=O)N[C@@H](CCC(N)=O)[C@@H](C)OCc1ccc(CCCOCCOCCOCCOCCOc2cc(-c4scnc4C)ccc2CNC(=O)[C@@H]2C[C@@H](O)CN2C(=O)[C@@H](NC(=O)C2(F)CC2)C(C)(C)C)cc1)C3)c1ccc(C(F)(F)P(=O)(OCOC(=O)C(C)(C)C)OCOC(=O)C(C)(C)C)cc1` [Compound I-16] as the molecule, how does the DC50 read?
A: The DC50 was greater than 30 µM.

Same assay, conditions: read-out: A549 DC50, 24 hours, tested up to 30 μM or 10 μM

Q: `C/C(=C\C(=O)N[C@H]1CN(C(=O)CCCCCc2ccc3c(c2)n(C)c(=O)n3C2CCC(=O)NC2=O)CC[C@H]2CC[C@@H](C(=O)N[C@@H](CCC(N)=O)C(=O)NC(c3ccccc3)c3ccccc3)N2C1=O)c1ccc(C(F)(F)P(=O)(O)O)cc1` (stereo partly drawn) [Compound I-114, [4-[(1E)-1-[[(5S,8S,10aR)-8-[[(1S)-3-carbamoyl-1-(diphenylmethylcarbamoyl)propyl]carbamoyl]-3-[6-[1-(2,6-dioxopiperidin-3-yl)-3-methyl-2-oxo-1,3-benzodiazol-5-yl]hexanoyl]-6-oxo-octahydropyrrolo[1,2-a][1,5]diazocin-5-yl]carbamoyl]prop-1-en-2-yl]phenyl]difluoromethylphosphonic acid] was tested. Which DC50 did it give?
A: The DC50 was greater than 30 µM.

Q: With `C/C(=C\C(=O)N[C@H]1CCc2cccc3c2N(C1=O)[C@H](C(=O)N[C@@H](CCC(N)=O)[C@@H](C)OCc1ccc(CCCOCCOCCOCCOc2cc(-c4scnc4C)ccc2CNC(=O)[C@@H]2C[C@@H](O)CN2C(=O)[C@@H](NC(=O)C2(F)CC2)C(C)(C)C)cc1)C3)c1ccc(C(F)(F)P(=O)(OCOC(=O)C(C)(C)C)OCOC(=O)C(C)(C)C)cc1` [Compound I-17] as the molecule, how does the DC50 read?
A: The DC50 was greater than 30 µM.

Q: Which DC50 does the source give for `C[C@@H](OCc1ccc(CCCCc2ccc3c(c2)n(C)c(=O)n3C2CCC(=O)NC2=O)cc1)[C@H](CCC(N)=O)NC(=O)[C@@H]1Cc2cccc3c2N1C(=O)[C@@H](NC(=O)c1cc2cc(C(=O)P(=O)(O)O)ccc2[nH]1)CC3` (some centres unmarked) [Compound I-84] here?
A: Its DC50 is greater than 30 µM.

Q: For `Cn1c(C(=O)N[C@H]2CN(C(=O)CCCCCC#Cc3cccc4c3CN(C3CCC(=O)NC3=O)C4=O)CC[C@H]3CC[C@@H](C(=O)N[C@@H](CCC(N)=O)C(=O)NC(c4ccccc4)c4ccccc4)N3C2=O)cc2cc(C(=O)P(=O)(O)O)ccc21` (stereo partly drawn) [Compound I-102, diammonium 2-[[(5S,8S,10aR)-8-[[(1S)-3-carbamoyl-1-(diphenylmethylcarbamoyl)propyl]carbamoyl]-3-[8-[2-(2,6-dioxopiperidin-3-yl)-1-oxo-3H-isoindol-4-yl]oct-7-ynoyl]-6-oxo-octahydropyrrolo[1,2-a][1,5]diazocin-5-yl]carbamoyl]-1-methylindole-5-carbonylphosphonate], which DC50 is on record?
A: The DC50 was less than 30 µM.

Q: Which DC50 does the source give for `Cn1c(=O)n(C2CCC(=O)NC2=O)c2ccc(C#CCCCC(=O)N3CC[C@H]4CC[C@@H](C(=O)N[C@@H](CCC(N)=O)C(=O)NC(c5ccccc5)c5ccccc5)N4C(=O)[C@@H](NC(=O)c4cc5cc(C(=O)P(=O)(O)O)ccc5[nH]4)C3)cc21` (stereo partly drawn) [Compound I-105, 2-[[(5S,8S,10aR)-8-[[(1S)-3-carbamoyl-1-(diphenylmethylcarbamoyl)propyl]carbamoyl]-3-[6-[1-(2,6-dioxopiperidin-3-yl)-3-methyl-2-oxo-1,3-benzodiazol-5-yl]hex-5-ynoyl]-6-oxo-octahydropyrrolo[1,2-a][1,5]diazocin-5-yl]carbamoyl]-1H-indole-5-carbonylphosphonic acid] here?
A: The DC50 was less than 30 µM.

Q: `Cn1c(=O)n(C2CCC(=O)NC2=O)c2ccc(C#CCCCCC(=O)N3CC[C@H]4CC[C@@H](C(=O)N[C@@H](CCC(N)=O)C(=O)NC(c5ccccc5)c5ccccc5)N4C(=O)[C@@H](NC(=O)c4cc5cc(C(=O)P(=O)(O)O)ccc5[nH]4)C3)cc21` (stereo partly drawn) [Compound I-99, 2-[[(5S,8S,10aR)-8-[[(1S)-3-carbamoyl-1-(diphenylmethylcarbamoyl)propyl]carbamoyl]-3-[7-[1-(2,6-dioxopiperidin-3-yl)-3-methyl-2-oxo-1,3-benzodiazol-5-yl]hept-6-ynoyl]-6-oxo-octahydropyrrolo[1,2-a][1,5]diazocin-5-yl]carbamoyl]-1H-indole-5-carbonylphosphonic acid] was tested. Which DC50 did it give?
A: Its DC50 is less than 30 µM.

Q: With `Cn1c(=O)n(C2CCC(=O)NC2=O)c2ccc(CCCCCCCC(=O)N3CC[C@H]4CC[C@@H](C(=O)N[C@@H](CCC(N)=O)C(=O)NC(c5ccccc5)c5ccccc5)N4C(=O)[C@@H](NC(=O)c4cc5cc(C(=O)P(=O)(O)O)ccc5[nH]4)C3)cc21` (stereo partly drawn) [Compound I-97, 2-[[(5S,8S,10aR)-8-[[(1S)-3-carbamoyl-1-(diphenylmethylcarbamoyl)propyl]carbamoyl]-3-[8-[1-(2,6-dioxopiperidin-3-yl)-3-methyl-2-oxo-1,3-benzodiazol-5-yl]octanoyl]-6-oxo-octahydropyrrolo[1,2-a][1,5]diazocin-5-yl]carbamoyl]-1H-indole-5-carbonylphosphonic acid] as the molecule, how does the DC50 read?
A: The DC50 was less than 30 µM.

Q: `Cc1ncsc1-c1ccc(C2(NC(=O)[C@@H]3C[C@@H](O)CN3C(=O)[C@@H](NC(=O)CCCCc3ccc(CO[C@H](C)[C@H](CCC(N)=O)NC(=O)[C@@H]4Cc5cccc6c5N4C(=O)[C@@H](NC(=O)c4cc5cc(C(=O)P(=O)(O)O)ccc5[nH]4)CC6)cc3)C(C)(C)C)CC2)cc1` [Compound I-90, 2-[[(2S,11S)-2-[[(3S,4R)-1-carbamoyl-4-[[4-(4-[[(2S)-1-[(2S,4R)-4-hydroxy-2-([1-[4-(4-methyl-1,3-thiazol-5-yl)phenyl]cyclopropyl]carbamoyl)pyrrolidin-1-yl]-3,3-dimethyl-1-oxobutan-2-yl]carbamoyl]butyl)phenyl]methoxy]pentan-3-yl]carbamoyl]-12-oxo-1-azatricyclo[6.4.1.0^[4,13]]trideca-4(13),5,7-trien-11-yl]carbamoyl]-1H-indole-5-carbonylphosphonic acid] was tested. Which DC50 did it give?
A: The DC50 was less than 30 µM.

Q: For `C/C(=C\C(=O)N[C@H]1CCc2cccc3c2N(C1=O)[C@H](C(=O)N[C@@H](CCC(N)=O)[C@@H](C)OCc1ccc(CCCOCCCCCc2cccc4c2n(C)c(=O)n4C2CCC(=O)NC2=O)cc1)C3)c1ccc(C(F)(F)P(=O)(OCOC(=O)C(C)(C)C)OCOC(=O)C(C)(C)C)cc1` (some centres unmarked) [Compound I-29], which DC50 is on record?
A: The DC50 was greater than 10 µM.

Q: Which DC50 does the source give for `C/C(=C\C(=O)N[C@H]1CCc2cccc3c2N(C1=O)[C@H](C(=O)N[C@@H](CCC(N)=O)[C@@H](C)OCCCc1ccc2c(c1)n(C)c(=O)n2C1CCC(=O)NC1=O)C3)c1ccc(C(F)(F)P(=O)(O)O)cc1` (stereo partly drawn) [Compound I-110, diammonium [4-[(1E)-1-[[(2S,11S)-2-[[(3S,4R)-1-carbamoyl-4-[3-[1-(2,6-dioxopiperidin-3-yl)-3-methyl-2-oxo-1,3-benzodiazol-5-yl]propoxy]pentan-3-yl]carbamoyl]-12-oxo-1-azatricyclo[6.4.1.0^[4,13]]trideca-4(13),5,7-trien-11-yl]carbamoyl]prop-1-en-2-yl]phenyl]difluoromethylphosphonate] here?
A: Its DC50 is greater than 30 µM.

Q: With `C/C(=C\C(=O)N[C@H]1CCc2cccc3c2N(C1=O)[C@H](C(=O)N[C@@H](CCC(N)=O)[C@@H](C)OCc1ccc(CCOCCOCC(=O)N[C@H](C(=O)N2C[C@H](O)C[C@H]2C(=O)NCc2ccc(-c4scnc4C)cc2)C(C)(C)C)cc1)C3)c1ccc(C(F)(F)P(=O)(OCOC(=O)C(C)(C)C)OCOC(=O)C(C)(C)C)cc1` [Compound I-31] as the molecule, how does the DC50 read?
A: Its DC50 is greater than 30 µM.

Q: For `C/C(=C\C(=O)N[C@H]1CN(C(=O)CCCCCC#Cc2cccc3c2CN(C2CCC(=O)NC2=O)C3=O)CC[C@H]2CC[C@@H](C(=O)N[C@@H](CCC(N)=O)C(=O)NC(c3ccccc3)c3ccccc3)N2C1=O)c1ccc(CP(=O)(O)O)cc1` (stereo partly drawn) [Compound I-89, diammonium [4-[(1E)-1-[[(5S,8S,10aR)-8[[(1S)-3-carbamoyl-1-(diphenylmethylcarbamoyl)propyl]carbamoyl]-3-[8-[2-(2,6-dioxopiperidin-3-yl)-1-oxo-3H-isoindol-4-yl]oct-7-ynoyl]-6-oxo-octahydropyrrolo[1,2-a][1,5]diazocin-5-yl]carbamoyl]prop-1-en-2-yl]phenyl]methylphosphonate], which DC50 is on record?
A: The DC50 was less than 30 µM.

Q: Which DC50 does the source give for `C/C(=C\C(=O)N[C@H]1CCc2cccc3c2N(C1=O)[C@H](C(=O)N[C@@H](CCC(N)=O)[C@@H](C)OCc1ccc(CCCCCC(=O)N[C@H](C(=O)N2C[C@H](O)C[C@H]2C(=O)NCc2ccc(-c4scnc4C)cc2)C(C)(C)C)cc1)C3)c1ccc(C(F)(F)P(=O)(OCOC(=O)C(C)(C)C)OCOC(=O)C(C)(C)C)cc1` [Compound I-71] here?
A: Its DC50 is less than 30 µM.
